In patent US20150272939A1, “Identification of Small Molecule Inhibitors of Jumonji AT-Rich Interactive Domain 1A (JARID1A) and 1B (JARID1B) Histone Demethylase” (Yale University, priority 2012, published 2015):

Key:
JARID1B = molecular target: T1, JARID1B (Homo sapiens, UniProt Q9UGL1); test: FLAG-JARID1B histone demethylase assay with AlphaScreen detection (HTS and dose response); format: biochemical; settings: for Assay − Artifact Signal (percent): assay signal minus artifact signal; for inhibition at 20 µM: high-throughput screen, compound 20 μM, standard demethylase conditions (10 μM α-KG, 50 μM Fe (II)), read-out: Inhibitory effect (percent); for Assay Signal (percent) / Validation result of HTS active: effect of the compound in the JARID1B AlphaScreen demethylase assay: validation of HTS actives; for Assay Signal (percent): effect of compound in JARID1B AlphaScreen assay; for Validation result of HTS active: effect of the compound in the JARID1B AlphaScreen demethylase assay: total signal before subtraction of artifact signal;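 for Assay Signal (percent): compound tested at 20 µM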;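 for Assay − Artifact Signal (percent): compound tested at 20 µM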;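 for all read-outs here: FLAG-tagged JARID1B at 4 nM acting on a biotinylated H3K4me3 peptide, demethylation read by AlphaScreen luminescence, with hits checked against bio-H3K4me2 without enzyme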
T1 construct: The FLAG tagged full length JARID1B enzyme was expressed in Sf21 insect cells using FLAG-JARID1B baculoviruses; FLAG (N); made in house; host or cells: Sf21 insect cells (baculovirus)

[1] = AlphaScreen counterscreen against bio-H3K4me2 peptide in the absence of enzyme (artifact signal); settings: for Artifact Signal (percent): effect of the compound when incubated with bio-H3K4me2 peptide (counterscreen, no enzyme); for Artifact signal: effect of the compound when it is incubated with bio-H3K4me2 peptide: counterscreen, no enzyme;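 for all read-outs here: counterscreen run without enzyme against bio-H3K4me2 peptide to remove false positive hits from the JARID1 demethylase AlphaScreen screen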

T1 sequence (Q9UGL1 whole entry): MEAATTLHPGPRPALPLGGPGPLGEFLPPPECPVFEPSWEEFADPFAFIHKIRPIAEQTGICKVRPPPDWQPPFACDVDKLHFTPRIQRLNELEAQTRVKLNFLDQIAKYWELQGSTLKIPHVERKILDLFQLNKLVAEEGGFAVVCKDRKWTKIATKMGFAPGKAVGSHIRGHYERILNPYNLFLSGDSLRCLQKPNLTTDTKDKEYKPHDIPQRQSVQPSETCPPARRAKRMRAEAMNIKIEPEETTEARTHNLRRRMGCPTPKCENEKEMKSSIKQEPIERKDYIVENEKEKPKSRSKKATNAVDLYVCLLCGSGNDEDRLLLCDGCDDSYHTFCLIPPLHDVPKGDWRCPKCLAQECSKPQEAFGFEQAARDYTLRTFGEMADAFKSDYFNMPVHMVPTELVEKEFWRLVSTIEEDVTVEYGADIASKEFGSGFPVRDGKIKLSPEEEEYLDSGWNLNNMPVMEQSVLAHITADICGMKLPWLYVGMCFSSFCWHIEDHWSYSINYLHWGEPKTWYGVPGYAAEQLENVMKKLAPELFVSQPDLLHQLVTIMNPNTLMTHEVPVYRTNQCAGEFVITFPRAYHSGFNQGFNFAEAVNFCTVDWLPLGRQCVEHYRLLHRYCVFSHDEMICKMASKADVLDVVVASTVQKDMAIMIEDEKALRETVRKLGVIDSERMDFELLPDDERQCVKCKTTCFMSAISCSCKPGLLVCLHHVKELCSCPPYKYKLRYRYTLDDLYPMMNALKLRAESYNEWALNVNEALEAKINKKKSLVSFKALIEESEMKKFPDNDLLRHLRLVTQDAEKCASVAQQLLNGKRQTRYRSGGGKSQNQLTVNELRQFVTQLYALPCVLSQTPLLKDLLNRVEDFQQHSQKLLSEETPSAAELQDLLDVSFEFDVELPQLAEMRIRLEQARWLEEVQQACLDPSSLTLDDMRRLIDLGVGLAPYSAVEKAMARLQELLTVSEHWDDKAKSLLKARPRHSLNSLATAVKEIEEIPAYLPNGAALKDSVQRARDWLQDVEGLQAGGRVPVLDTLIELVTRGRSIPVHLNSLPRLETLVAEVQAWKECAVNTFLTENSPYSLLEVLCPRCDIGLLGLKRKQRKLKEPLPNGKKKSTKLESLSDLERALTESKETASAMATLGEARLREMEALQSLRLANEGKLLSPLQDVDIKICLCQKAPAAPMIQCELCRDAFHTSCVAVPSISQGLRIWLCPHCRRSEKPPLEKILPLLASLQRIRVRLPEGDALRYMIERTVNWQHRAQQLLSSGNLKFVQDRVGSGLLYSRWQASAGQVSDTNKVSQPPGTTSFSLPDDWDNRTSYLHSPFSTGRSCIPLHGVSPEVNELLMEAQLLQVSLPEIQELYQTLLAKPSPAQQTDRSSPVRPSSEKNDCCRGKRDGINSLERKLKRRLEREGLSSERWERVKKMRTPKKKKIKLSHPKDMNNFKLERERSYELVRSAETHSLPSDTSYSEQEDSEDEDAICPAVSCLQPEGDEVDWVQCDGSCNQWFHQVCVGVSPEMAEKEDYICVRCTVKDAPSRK

Row | Structure (SMILES) | Assay − Artifact Signal (percent) (JARID1B) [%] | inhibition at 20 µM (JARID1B) [%] | Assay Signal (percent) (JARID1B) [%] | Artifact Signal (percent) [1] [%] | Validation result of HTS active: effect of the compound in the JARID1B AlphaScreen demethylase assay (JARID1B) | Artifact signal: effect of the compound when it is incubated with bio-H3K4me2 peptide [1]
1 | Cc1ccc(CNn2cnnc2S)cc1 [YU145266] | 44.07 | 45.7 | 45.11 | 1.04 |  | 
2 | COc1ccc2c(CCN)c[nH]c2c1.Cl [YU145407] | 8.55 | 43 | 6.76 | −1.79 |  | 
3 | Cc1ccsc1CNn1cnnc1S [YU145432] | 46.83 | 33.3 | 48.50 | 1.67 |  | 
4 | O=C(O)c1cccc(NCc2ccncc2)c1 [YU145461] | 95.48 | 94.6 | 96.37 | 0.89 |  | 
5 | Cc1ccc(C)n1NC(=O)c1ccc(O)cc1 [YU145520] |  | 36.9 |  |  | 3.79 | 1.80
6 | N#Cc1c(O)nc(S)nc1-c1ccccc1 [YU145521] | 9.91 | 68.2 | 6.99 | −2.92 |  | 
7 | c1ccc2c(NCc3ccncc3)cccc2c1 [YU145649] | 87.87 | 87.7 | 89.97 | 2.10 |  | 
8 | Cc1cc(C)nc(N(C#N)C(=S)N(C)C)n1 [YU145653] | 27.17 |  | 18.58 | −8.59 |  | 
9 | CCCN1CCN(C(=O)c2ccncc2)CC1 [YU145702] | 45.86 | 35.9 | 44.33 | −1.53 |  | 
10 | CC(C)n1c(-c2ccccc2F)n[nH]c1=S [YU145747] | 31.49 | 31.3 | 36.22 | 4.74 |  | 
11 | CC(O)Cc1nnc(S)n1-c1ccccc1 (centres unmarked) [YU145796] | 40.83 | 34.8 | 33.04 | −7.79 |  | 
12 | Cl.Cn1cccc1CNCc1ccncc1 [YU145853] | 57.65 | 76.6 | 66.64 | 8.99 |  | 
13 | CN(C)c1cccc2c(C=O)ccc(N(C)C)c12 [YU145980] | 28.03 | 32.3 | 35.60 | 7.56 |  | 
14 | Cc1cc(C)nc(Nc2ccc(N(C)C)cc2)n1 [YU146020] | 8.99 | 30.9 | 12.15 | 3.15 |  | 
15 | Cc1ccc(-n2sc3ccccc3c2=O)cc1 [YU146026] | 85.63 | 87.8 | 88.51 | 2.88 |  | 
16 | COC(=O)Nc1nnc(CC2CCCC2)s1 [YU146034] | 21.12 | 33 | 18.33 | <2.79 |  | 
17 | O=C(NCCOc1ccccc1)c1ccccc1 [YU146037] |  | 32.6 |  |  | −0.56 | −1.42
18 | c1cc(CNc2ccc3c(c2)OCCO3)ccn1 [YU146041] | 54.24 | 48.7 | 55.23 | 0.99 |  | 
19 | C=CCNCCCCOc1cccc(OCC)c1 [YU146294] | 8.13 | 36.5 | 14.08 | 5.94 |  | 
20 | COc1ccc(CNn2c(C)nnc2S)cc1 [YU146438] | 42.15 | 36.9 | 50.33 | 8.17 |  | 
21 | O=Cc1ccc(-c2ccc(S(=O)(=O)O)cc2)o1 [YU146454] | 68.83 | 42.3 | 64.68 | −4.14 |  | 
22 | COc1ccccc1OCc1nnc(S)n1C [YU146471] | 47.93 | 36.4 | 46.29 | −1.64 |  | 
23 | N#CC(=Cc1ccc(-c2ccccc2)o1)C(N)=S [YU146534] | 10.89 | 32.8 | 15.42 | 4.53 |  | 
24 | O=C(O)CCCSCC(=O)Nc1ccccc1 [YU146590] | 10.85 | 60.2 | 13.35 | 2.50 |  | 

Row | Structure (SMILES) | Assay − Artifact Signal (percent) (JARID1B) [%] | inhibition at 20 µM (JARID1B) [%] | Assay Signal (percent) (JARID1B) [%] | Artifact Signal (percent) [1] [%] | Validation result of HTS active: effect of the compound in the JARID1B AlphaScreen demethylase assay (JARID1B) | Artifact signal: effect of the compound when it is incubated with bio-H3K4me2 peptide [1]
25 | COc1cc(C=O)ccc1OC(=O)c1ccncc1 [YU146698] | 53.39 | 52.5 | 48.27 | −5.12 |  | 
26 | Fc1cccc(Cl)c1CNn1cnnc1S [YU146768] | 49.49 | 34 | 48.97 | −0.52 |  | 
27 | C=CCn1c(-c2ccc([N+](=O)[O-])cc2)n[nH]c1=S [YU147005] | 34.06 | 36.8 | 37.42 | 3.36 |  | 
28 | S=C(Nc1ccc2c(c1)OCO2)Nn1cnnc1 [YU147019] | 17.76 | 37.3 | 16.46 | −1.29 |  | 
29 | Cc1ccccc1C(=O)NCc1nnc(S)n1C [YU147024] | 35.27 | 31.6 | 29.44 | −5.84 |  | 
30 | O=C(NC(=S)NCc1ccccc1)C1CCCC1 [YU147054] | 24.52 | 33.9 | 22.98 | −1.54 |  | 
31 | N#CC(=Cc1ccncc1)c1nc2ccccc2s1 [YU147088] | 45.66 | 39.8 | 46.00 | 0.34 |  | 
32 | Cc1nnc(S)n1NCc1ccc2c(c1)OCO2 [YU147191] | 43.11 | 31.5 | 45.05 | 1.94 |  | 
33 | COCCCNCCOc1cc(C(C)C)ccc1C [YU147245] | 12.07 | 30.9 | 13.31 | 1.25 |  | 
34 | CCOc1cc(CN)cc(Cl)c1OCC.Cl [YU147266] | 69.10 | 68.6 | 69.21 | 0.11 |  | 
35 | CCSc1nnc(-c2cc(OC)cc(OC)c2)o1 [YU147278] | 15.14 | 32.8 | 9.43 | −5.71 |  | 
36 | Cn1c(S)nnc1CSCc1ccc(F)cc1 [YU147498] | 23.24 | 31.1 | 19.36 | −3.87 |  | 
37 | Cc1cc(OCc2nc3ccccc3s2)ccc1N [YU147615] | 13.88 | 40.4 | 14.43 | 0.54 |  | 
38 | CNCCCOc1ccc(OCc2ccccc2)cc1 [YU147640] |  | 39.1 |  |  | 5.15 | −2.82
39 | C=CCn1c(Cc2nc3ccccc3[nH]2)n[nH]c1=S [YU147658] | 28.18 | 32.8 | 27.63 | −0.55 |  | 
40 | COc1ccc2nc(NCc3ccncc3)sc2c1 [YU147704] | 54.05 | 70.4 | 55.47 | 1.42 |  | 
41 | Cc1nc(NC(=O)c2cc3ccccc3o2)sc1C [YU147750] |  | 86.4 |  |  | −2.53 | −6.59
42 | O=S(=O)(NN1CCOCC1)c1ccc(Cl)cc1 [YU148050] | 17.03 | 36.1 | 20.47 | 3.44 |  | 
43 | COC(=O)c1cccc(OCC(O)Cn2ccnc2)c1 (centres unmarked) [YU148087] | 8.48 | 51.4 | 15.48 | 7.00 |  | 
44 | C=CCn1c(-c2cccc(OC)c2OC)n[nH]c1=S [YU148159] | 35.74 | 30.4 | 38.72 | 2.98 |  | 
45 | O=C(NNC(=S)NCC1CCCO1)c1ccccn1 (centres unmarked) [YU148374] | 54.50 | 84.8 | 77.28 | 22.77 |  | 
46 | COc1ccc(Cl)cc1NC(=S)Nn1cnnc1 [YU148611] | 17.82 | 34.6 | 15.61 | −2.20 |  | 
47 | O=C(NCCc1ccc(F)cc1)C(Cl)(Cl)Cl [YU148680] |  | 63.9 |  |  | −2.95 | −10.90
